Values quoted from earlier work as cited in patent publication US6638535B2, “Modified release formulations containing a hypnotic agent” (Synthon BV, priority 2000, dated 2003).

Conditions: in therapy, after ingestion of the commercial immediate release tablet

Q: For `Cc1ccc(-c2nc3ccc(C)cn3c2CC(=O)N(C)C)cc1` [zolpidem, N,N,6-trimethyl-2-(4-methylphenyl)-imidazo[1,2-s]pyridine-3-acetamide], which “duration of action (action lasts)” value is on record?
A: 4 to 6 h

Q: What about the “onset of action (starts acting)” value ('or even earlier') of the same compound?
A: 15 to 30 min
